Laboratory results as given in patent US20110207726A1, “Inhibitors of Human Cathepsin L, Cathepsin B, and Cathepsin S” (The Trustees of the University of Pennsylvania, priority 2008, published 2011).
Like-named read-outs stand apart in the source and are kept apart here.

Key:
human liver cathepsin L [1] = biological target: T1, human liver cathepsin L (Homo sapiens, UniProt P07711); test: Cathepsin L assay, IC50 determination; assay type: biochemical
T1 construct: 8.7 ng/mL human liver cathepsin L (Calbiochem 219402); purchased Calbiochem 219402; host or cells: human liver
T1 sequence (P07711 114-288 limits assumed): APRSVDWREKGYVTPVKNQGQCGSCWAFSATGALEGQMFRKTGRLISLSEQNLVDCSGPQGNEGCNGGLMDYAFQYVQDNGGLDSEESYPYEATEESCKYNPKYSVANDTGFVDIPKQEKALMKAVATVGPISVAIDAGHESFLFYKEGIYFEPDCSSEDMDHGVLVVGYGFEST
T1 sequence (P07711 292-333 limits assumed): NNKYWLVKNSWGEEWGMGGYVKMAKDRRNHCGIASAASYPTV
Experimental: Assay buffer consisted of 20 mM sodium acetate, 1 mM ethylenediaminetetraacetic acid (EDTA) and 5 mM cysteine, pH 5.5. Cathepsin L was incubated in assay buffer for 30 minutes prior to dispensing into wells to allow for efficient reduction of the active site cysteine required for full enzymatic activity.
Upon activation, cathepsin L (300 pM, 8.7 ng/mL) was incubated with 1 microM Z-Phe-Arg-AMC substrate (Sigma C9521) and test compound in […] of assay buffer for 1 hour at room temperature.
All reactions were performed in 20 mM sodium acetate buffer containing 5 mM cysteine and 1 mM EDTA, pH 5.5. Reaction progress was monitored using the Envision microplate reader. IC50 values were measured in triplicate.

[2] = Stability in DMSO and cathepsin L assay buffer; assay type: physicochemical
Source text: Some variability in IC50 values determined for Compound (iii) prompted us to explore the stability of both Compound No. 1 and Compound (iii) in solvents relevant to the bioassay.

Human liver cathepsin B = biological target: T2, Human liver cathepsin B (Homo sapiens, UniProt P07858); test: Cathepsin B assay, IC50 determination; assay type: biochemical; details: for Selectivity Index (IC50 Cat B)/(IC50 Cat L): Cathepsin B vs cathepsin L
T2 construct: Human liver cathepsin B (Calbiochem 219362, 65 ng/mL); purchased Calbiochem 219362; host or cells: human liver
Experimental: (§1) Human spleen cathepsin S (Calbiochem 219344, 40 ng/mL) was assayed using 15 microM Z-Phe-Arg-AMC substrate. Human liver cathepsin B (Calbiochem 219362, 65 ng/mL) was assayed using 15 microM Z-Arg-Arg-AMC substrate (Bachem I-1135). All reactions were performed in 20 mM sodium acetate buffer containing 1 mM EDTA and 5 mM cysteine, pH 5.5.
(§2) Compounds were serially diluted in DMSO and transferred into a 96-well Corning 3686 assay microplate to give a 16-point two-fold serial dilution dose response ranging from 25 microM to 760 pM. Human liver cathepsin L (Calbiochem 219402) was activated by incubating with assay buffer for 30 min. Upon activation, cathepsin L (300 pM, 8.7 ng/mL) was incubated with 1 microM Z-Phe-Arg-AMC substrate (Sigma C9521) and test compound in […] of assay buffer for 1 hour at room temperature. Fluorescence of AMC released by enzyme-catalyzed hydrolysis of Z-Phe-Arg-AMC was read on a PerkinElmer Envision microplate reader (excitation 355 nm, emission 460 nm). Data were scaled using internal controls and fitted to a four-parameter logistic model (IDBS XLfit equation 205) to obtain IC50 values in triplicate.
(§3) Compound No. 1 was assayed for inhibition against papain and cathepsins B, G, K, S, and V. Papain from Carica papaya (Calbiochem 5125, 11 ng/mL), human cathepsin K (Calbiochem 342001, 35 ng/mL), human spleen cathepsin S (Calbiochem 219344, 40 ng/mL), and human cathepsin V (Calbiochem 219467, 39 ng/ml) were assayed using Z-Phe-Arg-AMC substrate at 20 μM, 20 μM, 15 μM, and 1 μM, respectively. Human liver cathepsin B (Calbiochem 219362, 65 ng/mL) was assayed using 15 μM Z-Arg-Arg-AMC substrate (Bachem I-1135). Human neutrophil cathepsin G (Calbiochem 219373, 4.2 μg/mL) was assayed using 15 μM Suc-Ala-Ala-Pro-Phe-AMC substrate (Sigma S9761). All reactions were performed in 20 mM sodium acetate buffer containing 5 mM cysteine and 1 mM EDTA, pH 5.5. Reaction progress was monitored using the Envision microplate reader. IC50 values were measured in triplicate.

Human spleen cathepsin S = biological target: T3, Human spleen cathepsin S (Homo sapiens, UniProt P25774); test: Cathepsin S assay, IC50 determination; assay type: biochemical; details: Tables 2-11; read-out: Cat S
T3 construct: Human spleen cathepsin S (Calbiochem 219344, 40 ng/mL); purchased Calbiochem 219344; host or cells: human spleen
T3 sequence (P25774 115-331): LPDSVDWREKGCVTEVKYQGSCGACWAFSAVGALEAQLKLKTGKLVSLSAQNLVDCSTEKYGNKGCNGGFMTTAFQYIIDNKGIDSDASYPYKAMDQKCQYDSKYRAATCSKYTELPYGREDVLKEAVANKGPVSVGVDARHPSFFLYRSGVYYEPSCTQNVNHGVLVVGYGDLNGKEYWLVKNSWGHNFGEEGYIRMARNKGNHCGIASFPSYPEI
Experimental: as §1, §2, §3

Ebola virus pseudotype = test: microbe, parasite or virus in culture; assay type: cell-based; details: read-out: IC50, Ebola virus pseudotype entry
[3] = tested on: Vesicular stomatitis virus (VSV); test: microbe, parasite or virus in culture; assay type: cell-based; details: read-out: IC50, VSV entry (control)
human cathepsin L = human cathepsin L (Homo sapiens, UniProt P07711); test: Preincubation studies, cathepsin L; assay type: biochemical; set-up: 8.7 ng/mL human liver cathepsin L (Calbiochem 219402); purchased Calbiochem 219402; host or cells: human liver; details: preincubation with enzyme 4 h; read-out: IC50 against human cathepsin L after 4 hours preincubation
Chain of human cathepsin L (P07711 114-288 limits assumed): as the sequence (P07711 114-288 limits assumed) above
Chain of human cathepsin L (P07711 292-333 limits assumed): as the sequence (P07711 292-333 limits assumed) above
Experimental: To establish the time-dependent mechanism of inhibition, enzyme and inhibitor were preincubated for various time points in a 96-well microplate prior to the addition of substrate to initiate the enzymatic reaction. 47.5 μL of cathepsin L (18.3 ng/mL) and 47.5 μL of Compound No. 1 at various concentrations in assay buffer were incubated up to 4 hours. Five μL of Z-Phe-Arg-AMC substrate were then added and the plate was monitored for AMC hydrolysis on the Envision fluorescent microplate reader.

zebrafish = test: Zebrafish live organism toxicity assay; details: at 100 μM
[4] = tested on: SARS coronavirus pseudotype; test: microbe, parasite or virus in culture; assay type: cell-based; details: read-out: IC50, SARS-CoV pseudotype entry
human liver cathepsin L [5] = biological target: T1, human liver cathepsin L; test: HTS of MLSMR library and confirmatory dose response against cathepsin L; assay type: biochemical; details: 10 μM compound
Experimental: 57,821 compounds from the NIH Molecular Libraries Small Molecule Repository (MLSMR) were screened against human liver cathepsin L. This screen was performed in 384-well Corning 3676 black, low-volume, non-binding surface (NBS)-coated polystyrene plates using a total reaction volume of 10 μL per well. Final well concentrations were: 10 μM compound (2% DMSO), 300 pM (8.7 ng/mL) human liver cathepsin L, 1 μM Z-FR-AMC substrate, and 20 mM sodium acetate buffer containing 1 mM EDTA and […], pH 5.5. Cathepsin L was activated in the assay buffer for 30 minutes prior to dispensing into wells. Assay plates were incubated at room temperature for one how and the fluorescence intensity of each well was read with a PerkinElmer Envision plate reader (Ex: 355 nm, Em: 460 nm) to measure hydrolysis of the AMC substrate.
Library samples containing 2,5-disubstituted oxadiazoles were identified as potent hits in a high throughput screen of the NIH Molecular Libraries Small Molecule Repository directed at discovering inhibitors of cathepsin L (Table I). […] Analyses by LC-MS of original library samples indicated the presence of a number of impurities, in addition to the oxadiazoles. Synthesis and bioassay of the probable impurities led to the identification of a thiocarbazate that likely originated via ring opening of the oxadiazole. […]

[6] = no preincubation of enzyme and inhibitor, read-out: IC50 against cathepsin L (no preincubation)

| SMILES | IC50 (human liver cathepsin L [1]; Tables 2-11, read-out: Cat L) [µM] | IC50 (Human liver cathepsin B; Tables 2-11, read-out: Cat B) [µM] | IC50 (Human spleen cathepsin S) [µM] | other results |
| --- | --- | --- | --- | --- |
| CCc1ccccc1NC(=O)CSC(=O)NNC(=O)[C@@H](N)Cc1c[nH]c2ccccc12 [Compound (iii)] |  |  |  | IC50 (human liver cathepsin L [1]; [6]): 0.133 µM; stability in DMSO [2]: unstable |
| CCOC(=O)NNC(=O)[C@H](Cc1c[nH]c2ccccc12)NC(=O)OC(C)(C)C [Compound No. 95] | ≥ 25 | ≥ 25 | ≥ 25 |  |
| CC(C)(C)OC(=O)N[C@@H](Cc1c[nH]c2ccccc12)C(=O)NNC(=O)OCC(=O)N1CCCc2ccccc21 [Compound No. 96] | 0.006 | 10.1 | 0.025 | Selectivity Index (human liver cathepsin L [1]; Table 18, Cathepsin L): 1.0; IC50 (human liver cathepsin L [1]; [6]): 0.0069 µM; IC50 (Ebola virus pseudotype; Zaire ebolavirus, HEK-293T): 193 ± 39 nM; IC50 (Ebola virus pseudotype): ~200 nM; IC50 ([3]; Vesicular stomatitis virus): ≥ 10 µM; IC50 [3]: > 10 µM; IC50 (human cathepsin L): 0.4 nM; toxicity to zebrafish (zebrafish): Non-toxic to zebrafish at 100 μM; Selectivity Index (IC50 Cat B)/(IC50 Cat L) (Human liver cathepsin B; no preincubation): 724.6; Selectivity Index (IC50 Cat B)/(IC50 Cat L) (Human liver cathepsin B; no preincubation, listed as SID 46493575): 725; IC50 (Human liver cathepsin B; Table 18, Cathepsin B, human liver, no preincubation, read-out: IC50): 5.07 ± 0.883 µM; IC50 ([4]; Severe acute respiratory syndrome coronavirus, HEK-293T): 273 ± 49 nM; IC50 [4]: ~200 nM |
| CCc1ccccc1NC(=O)CCC(=O)NNC(=O)[C@H](Cc1c[nH]c2ccccc12)NC(=O)OC(C)(C)C [Compound No. 113] | ≥ 25 | ≥ 25 | ≥ 25 |  |
| O=C(CCc1c[nH]c2ccccc12)NNC(=O)CCc1c[nH]c2ccccc12 [Compound No. 114] | ≥ 25 | ≥ 25 | ≥ 25 |  |
| CC(C)(C)OC(=O)N[C@@H](Cc1c[nH]c2ccccc12)C(=O)NNC(=O)CCC(=O)N1CCCc2ccccc21 [Compound No. 115] | ≥ 25 | ≥ 25 | ≥ 25 |  |
| CSCC[C@H](NC(=O)OC(C)(C)C)C(=O)NNC(=O)c1ccccc1 [Compound No. 116] | ≥ 25 | ≥ 25 | ≥ 25 |  |
| CC(C)(C)OC(=O)N[C@@H](Cc1c[nH]c2ccccc12)C(=O)NNC(=O)[C@@H](Cc1c[nH]c2ccccc12)NC(=O)OC(C)(C)C [Compound No. 117] | ≥ 25 | ≥ 25 | ≥ 25 |  |
| CC(C)(C)OC(=O)N[C@@H](Cc1c[nH]c2ccccc12)C(=O)NN [Compound No. 118] | ≥ 25 | ≥ 25 | ≥ 25 |  |
| CC(C)(C)OC(=O)N[C@H](Cc1c[nH]c2ccccc12)C(=O)NN [Compound No. 119] | ≥ 25 | ≥ 25 | ≥ 25 |  |
| CC(C)(C)OC(=O)N[C@@H](Cc1c[nH]c2ccccc12)C(=O)NOCC(=O)N1CCCc2ccccc21 [Compound No. 120] | ≥ 25 | ≥ 25 | ≥ 25 |  |
| C/C=C(/C=O)[C@@H](CC=O)CC(=O)OCCc1ccc(O)cc1 [Compound No. 121] | ≥ 25 | ≥ 25 | ≥ 25 |  |
| Cc1ccc(S(=O)(=O)NNC(=O)[C@H](Cc2ccc(OC(=O)OC(C)(C)C)cc2)NC(=O)OC(C)(C)C)cc1 [Compound No. 122] | ≥ 25 | ≥ 25 | ≥ 25 |  |
| CC(C)(C)OC(=O)N[C@@H](Cc1c[nH]c2ccccc12)C(=O)N/N=C/c1ccccc1 [Compound No. 123] | ≥ 25 | ≥ 25 | ≥ 25 |  |
| CC(C)(C)OC(=O)N[C@@H](Cc1c[nH]c2ccccc12)C(=O)N/N=C/c1ccc(Cl)cc1 [Compound No. 124] | ≥ 25 | ≥ 25 | ≥ 25 |  |
| CC(C)(C)OC(=O)N[C@@H](Cc1c[nH]c2ccccc12)C(=O)NNC(=O)NCC(=O)N1CCCc2ccccc21 [Compound No. 125] | 2.34 | ≥ 25 | 13 |  |
| CSCC[C@H](NC(=O)OC(C)(C)C)C(=O)NNC(=S)SCC(=O)N1CCc2ccccc21 [Compound No. 126] | ≥ 25 | ≥ 25 | ≥ 25 |  |
| CC(C)(C)OC(=O)N[C@@H](Cc1ccc(OC(=O)OC(C)(C)C)cc1)C(=O)NNC(=O)C(=O)N1CCc2ccccc2C1 [Compound No. 127] | ≥ 25 | ≥ 25 | ≥ 25 |  |
| CC(C)C[C@H](NC(=O)[C@H]1O[C@@H]1C(=O)O)C(=O)NCCCCN=C(N)N [E-64] |  |  |  | HTS identification as cathepsin L inhibitor (in words) (human liver cathepsin L [5]): potent inhibitors of cathepsin L |
| CC(C)CCNC(=O)[C@H](CC(C)C)NC(=O)[C@H]1O[C@@H]1C(=O)O [E-64c] |  |  |  | HTS identification as cathepsin L inhibitor (in words) (human liver cathepsin L [5]): potent inhibitors of cathepsin L |
